PubChem BioAssay (NCI)
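Cells were grown in 96-well plates and exposed to each compound for 48 hours at five concentrations; endpoints were interpolated linearly between bracketing concentrations, or set to the highest concentration if not reached. The concentration for 50% growth inhibition is given as GI50. Definition used: TGI = concentration required for complete inhibition of growth.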

Legend:
Experiment in all cases: DTP human tumour cell line panel, 48 h
[1] = system: HL-60(TB) leukemia
[2] = system: LOX IMVI melanoma
[3] = system: HCC-2998 colon
[4] = system: ACHN renal
[5] = system: SK-MEL-2 melanoma
[6] = system: MOLT-4 leukemia
[7] = system: SR leukemia
[8] = system: NCI-H23 lung
[9] = system: U251 CNS
[10] = system: CAKI-1 renal

CC(=O)Nc1ccc(SC#N)c2c(NC(C)=O)cccc12
TGI [1]: 71.5 µM
TGI [2]: > 100 µM
TGI [3]: > 100 µM
TGI [4]: > 100 µM
TGI [5]: > 100 µM
TGI [6]: > 82.1 µM
TGI [7]: > 100 µM
TGI [8]: > 100 µM
TGI [9]: > 100 µM
TGI [10]: > 100 µM

COc1ccccc1-c1cc(=O)c2cc(C)cnc2[nH]1
GI50 [1]: 9530 nM
TGI [1]: 76.2 µM
TGI [2]: > 100 µM
TGI [3]: > 100 µM
TGI [4]: > 100 µM
TGI [5]: > 100 µM
TGI [6]: > 100 µM
TGI [7]: > 100 µM
TGI [8]: > 100 µM
GI50 [9]: 27.8 µM
TGI [9]: > 100 µM
TGI [10]: > 100 µM

O=C1c2c(c3c4ccccc4[nH]c3c3ccc4ccccc4c23)C(=O)N1CCN1CCNCC1
GI50 [1]: 1610 nM
TGI [1]: 3.5 µM
GI50 [2]: 1630 nM
TGI [2]: 3.11 µM
GI50 [3]: 1630 nM
TGI [3]: 3.15 µM
GI50 [4]: 1560 nM
TGI [4]: 2.9 µM
GI50 [5]: 2030 nM
TGI [5]: 4.7 µM
GI50 [6]: 487 nM
TGI [6]: 1.88 µM
GI50 [7]: 598 nM
TGI [7]: 2.63 µM
GI50 [8]: 1840 nM
TGI [8]: 3.7 µM
GI50 [9]: 1.64 µM
TGI [9]: 3.21 µM
GI50 [10]: 1370 nM
TGI [10]: 2.69 µM

Cc1cc(S(=O)(=O)/N=C(/N)Nc2ccccc2O)c(SCc2ccccc2)cc1Cl
GI50 [1]: 4220 nM
TGI [1]: > 100 µM
GI50 [2]: 14600 nM
TGI [2]: 33.5 µM
GI50 [3]: 14500 nM
TGI [3]: 29.7 µM
GI50 [4]: 13000 nM
TGI [4]: 27.4 µM
GI50 [5]: 10600 nM
TGI [5]: 26.2 µM
GI50 [6]: 3010 nM
TGI [6]: 42.3 µM
GI50 [7]: 5790 nM
TGI [7]: > 100 µM
GI50 [8]: 17100 nM
TGI [8]: 34.4 µM
GI50 [9]: 14.9 µM
TGI [9]: 30.5 µM
GI50 [10]: 13500 nM
TGI [10]: 32.3 µM

CC(C)C[C@H](NC(=O)CNC(=O)c1cc(Cl)ccc1Cl)B1OC(=O)CC(CC(=O)O)(C(=O)O)O1 (some centres not stated)
GI50 [1]: 53.3 nM
TGI [1]: > 100 µM
GI50 [2]: 32.5 nM
TGI [2]: 0.12 µM
GI50 [3]: 32.6 nM
TGI [3]: 0.105 µM
GI50 [4]: 38.9 nM
TGI [4]: > 59.9 µM
GI50 [5]: 39.9 nM
TGI [5]: 0.239 µM
GI50 [6]: 36.6 nM
TGI [6]: > 100 µM
GI50 [7]: 38.4 nM
TGI [7]: > 100 µM
GI50 [8]: 48 nM
TGI [8]: 6.44 µM
GI50 [9]: 0.0874 µM
TGI [9]: 5.64 µM
GI50 [10]: 41 nM
TGI [10]: 4.48 µM

COc1cc(C(=O)C/C(CCC(=O)Nc2ccccc2[N+](=O)[O-])=N\NC(N)=O)ccc1O
TGI [1]: > 100 µM
TGI [2]: > 100 µM
TGI [3]: > 100 µM
TGI [4]: > 100 µM
TGI [5]: > 100 µM
TGI [6]: > 100 µM
TGI [7]: > 100 µM
TGI [8]: > 100 µM
TGI [9]: > 100 µM
TGI [10]: > 100 µM

CCc1ccc2c(c1)N(CCO)C1=C(C(=O)OC1)C2c1cccc(Br)c1 (configuration not stated)
GI50 [1]: 317 nM
TGI [1]: 2.21 µM
GI50 [2]: 663 nM
TGI [2]: 17.2 µM
GI50 [3]: 1050 nM
TGI [3]: 7.82 µM
GI50 [4]: 1610 nM
TGI [4]: 20.4 µM
GI50 [5]: 300 nM
TGI [5]: 7.14 µM
GI50 [6]: 620 nM
TGI [6]: 19.3 µM
GI50 [7]: 409 nM
TGI [7]: 20.3 µM
GI50 [8]: 660 nM
TGI [8]: 15.6 µM
GI50 [9]: 0.494 µM
TGI [9]: 14.5 µM
GI50 [10]: 711 nM
TGI [10]: 23 µM

CC1(O)C=CC(=O)C=C1
TGI [1]: 52.8 µM
TGI [2]: 52.5 µM
TGI [3]: > 100 µM
TGI [4]: > 62.8 µM
TGI [5]: 56 µM
TGI [6]: > 72.7 µM
TGI [7]: 61.2 µM
TGI [8]: 93.8 µM
TGI [9]: 48.1 µM
TGI [10]: 91.5 µM

CN(C)CCCn1c(=O)c2ccccc2c2ccccc21
GI50 [1]: 21800 nM
TGI [1]: 69.5 µM
GI50 [2]: 5130 nM
TGI [2]: 44 µM
GI50 [3]: 16400 nM
TGI [3]: 34.8 µM
GI50 [4]: 4840 nM
TGI [4]: > 100 µM
GI50 [5]: 16500 nM
TGI [5]: 33.5 µM
GI50 [6]: 6460 nM
TGI [6]: > 100 µM
GI50 [7]: 12800 nM
TGI [7]: > 100 µM
GI50 [8]: 17600 nM
TGI [8]: 46 µM
GI50 [9]: 13.8 µM
TGI [9]: 78.5 µM
GI50 [10]: 6230 nM
TGI [10]: 34.9 µM

Cc1[nH]c2ccccc2c1C(=O)CC1(O)C(=O)Nc2c(Cl)cc(Cl)cc21 (configuration not stated)
TGI [1]: 37.6 µM
TGI [2]: 72.5 µM
TGI [3]: > 100 µM
TGI [4]: 53.5 µM
TGI [5]: 81 µM
TGI [6]: 55.1 µM
TGI [7]: 54.8 µM
TGI [8]: 44.5 µM
TGI [9]: > 100 µM
TGI [10]: 98.3 µM
